Experimental data taken from publication PMC4433244, “Interaction of cCMP with the cGK, cAK and MAPK Kinases in Murine Tissues” (PLoS ONE, 2015).

How the values were obtained:
cAKRIα = molecular target: T1, cAKRIα (Mus musculus, UniProt Q9DBC7); assay: 4-AH-cCMP agarose affinity chromatography competed by free cCMP; mass spectrometry and immunoblot (cAKRIα/β antibody); format: cell-based
T1 construct: gene Prkar1a; endogenous regulatory subunit in lung tissue lysate

cGKII = molecular target: T2, cGKII (Mus musculus, UniProt Q61410); assay: (γ-32P) ATP kinase assay with IRAGtide, activation of purified enzyme; format: biochemical
T2 construct: gene Prkg2; recombinant murine cGKII expressed in SF9 cells
T2 sequence (Q61410 2-762): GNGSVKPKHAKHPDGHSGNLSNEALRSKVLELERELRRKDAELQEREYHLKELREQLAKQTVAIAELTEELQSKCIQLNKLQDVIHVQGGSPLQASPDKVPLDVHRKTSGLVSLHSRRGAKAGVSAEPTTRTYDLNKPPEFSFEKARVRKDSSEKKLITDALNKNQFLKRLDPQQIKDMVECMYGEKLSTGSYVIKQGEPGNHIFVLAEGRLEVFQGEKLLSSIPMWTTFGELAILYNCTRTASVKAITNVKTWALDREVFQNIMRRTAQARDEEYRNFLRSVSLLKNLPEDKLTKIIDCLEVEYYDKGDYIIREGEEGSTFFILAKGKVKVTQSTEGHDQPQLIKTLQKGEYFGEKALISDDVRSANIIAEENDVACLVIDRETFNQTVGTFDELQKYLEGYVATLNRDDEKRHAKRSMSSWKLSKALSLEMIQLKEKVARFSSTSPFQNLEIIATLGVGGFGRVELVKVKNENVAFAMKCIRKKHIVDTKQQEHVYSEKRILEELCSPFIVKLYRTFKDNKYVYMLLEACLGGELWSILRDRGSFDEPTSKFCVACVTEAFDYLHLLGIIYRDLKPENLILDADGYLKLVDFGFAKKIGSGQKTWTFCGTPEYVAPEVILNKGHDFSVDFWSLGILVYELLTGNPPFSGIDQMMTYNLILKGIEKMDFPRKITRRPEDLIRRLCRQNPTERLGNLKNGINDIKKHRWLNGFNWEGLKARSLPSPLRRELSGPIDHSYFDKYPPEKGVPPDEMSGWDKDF

cGKI = molecular target: T3, cGKI (Mus musculus, UniProt P0C605)
T3 construct: gene Prkg1
T3 sequence (P0C605 2-671): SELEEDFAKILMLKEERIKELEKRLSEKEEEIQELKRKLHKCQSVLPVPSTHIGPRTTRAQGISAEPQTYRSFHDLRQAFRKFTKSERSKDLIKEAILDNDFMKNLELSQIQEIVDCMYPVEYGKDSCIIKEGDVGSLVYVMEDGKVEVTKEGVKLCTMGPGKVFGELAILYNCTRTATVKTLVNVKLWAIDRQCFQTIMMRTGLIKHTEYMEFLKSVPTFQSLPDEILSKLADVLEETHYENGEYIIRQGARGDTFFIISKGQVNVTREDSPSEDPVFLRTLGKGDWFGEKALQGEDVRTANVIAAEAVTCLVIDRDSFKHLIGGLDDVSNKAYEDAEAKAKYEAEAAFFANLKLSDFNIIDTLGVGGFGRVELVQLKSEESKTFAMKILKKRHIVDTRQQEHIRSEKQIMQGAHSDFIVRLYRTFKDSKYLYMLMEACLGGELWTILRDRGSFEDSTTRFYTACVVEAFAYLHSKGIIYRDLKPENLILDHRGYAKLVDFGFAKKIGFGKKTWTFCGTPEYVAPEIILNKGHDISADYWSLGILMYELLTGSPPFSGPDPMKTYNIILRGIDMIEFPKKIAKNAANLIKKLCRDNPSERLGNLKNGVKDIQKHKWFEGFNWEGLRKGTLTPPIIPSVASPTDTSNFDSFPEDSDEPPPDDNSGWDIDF

T1 sequence (Q9DBC7 2-381): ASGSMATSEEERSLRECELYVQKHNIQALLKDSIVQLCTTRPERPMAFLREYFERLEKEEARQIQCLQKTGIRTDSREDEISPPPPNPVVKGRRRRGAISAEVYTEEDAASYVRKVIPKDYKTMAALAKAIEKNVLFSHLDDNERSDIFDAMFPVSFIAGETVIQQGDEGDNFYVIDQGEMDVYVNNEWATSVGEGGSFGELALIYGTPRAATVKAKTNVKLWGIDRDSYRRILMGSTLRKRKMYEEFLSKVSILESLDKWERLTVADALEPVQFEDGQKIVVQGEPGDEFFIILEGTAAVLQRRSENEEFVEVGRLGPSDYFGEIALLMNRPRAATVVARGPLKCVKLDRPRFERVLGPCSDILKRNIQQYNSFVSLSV

SMILES | 4-AH-cCMP agarose affinity chromatography competed by free cCMP; mass spectromet (cAKRIα) | EC50 (cGKII) [µM] | EC50 (cGKI) [µM]
Nc1ccn([C@@H]2O[C@@H]3COP(=O)(O)O[C@H]3[C@H]2O)c(=O)n1 [cCMP] | Specific binding of cCMP to cAKRIα/β was also detected. | 110 ± 8 | –
Nc1nc2c(ncn2[C@@H]2O[C@@H]3COP(=O)(O)O[C@H]3[C@H]2O)c(=O)[nH]1 [cGMP] | – | – | 2 ± 0.5
